# Literature values as cited in paper PMC7395068, “The evolution of strategies to minimise the risk of human drug-induced liver injury (DILI) in drug discovery and development” (Archives of Toxicology, 2020).
# Structures can show the parent of a compound that is named as a salt. Where two headings read alike, the source gives them in different places. *1 amine or outer side, *2 acyl side, *3 side chain or, on linkers, in order; H or OH if unused. Where a SMILES comes first, the peptide text is derived from it. Bridges are numbered along the chain shown (N, C = ends). [ ]: non-standard residue; d: D form. The star is where a group is joined. hTyr(3S-OH,4S-OH,3'-OSO3H) = N[C@H](C(=O)O)[C@H](O)[C@@H](O)c1ccc(O)c(OS(=O)(=O)O)c1; Orn(4R-OH,5R-OH) = O=C([C@H](C[C@@H](O)[C@@H](O)N[*:3])N[*:1])[*:2]; Pro(3S-OH,4S-Me) = C[C@H]1CN[C@H](C(=O)O)[C@H]1O; X1 = CCCCCOc1ccc(-c2cc(-c3ccc(C(=O)*)cc3)no2)cc1; Gln(3R-OH) = NC(=O)C[C@@H](O)[C@H](N)C(=O)O; Hyp = O=C(O)[C@@H]1C[C@@H](O)CN1
# Details: cited from earlier work
# [1] = binary in vivo DILI call given beside the severity category, ref Chen 2016
# [2] = human DILI concern category (LTKB DILIrank), ref Chen 2016
SMILES,"DILI +VE (5-8), DILI -VE (-4) [1]",DILI severity category [2],"DILI +VE (5-8), DILI -VE (-4) (in vivo)",DILI severity category (in vivo)
CC[C@@H](CO)NC(=O)[C@@H]1C=C2c3cccc4c3c(cn4C)C[C@H]2N(C)C1 [methysergide],-VE,vNo-DILI-Concern,–,–
Cc1ccccc1N1C(=O)c2cc(S(N)(=O)=O)c(Cl)cc2NC1C (centres unmarked) [metolazone],-VE,Ambiguous DILI-concern,–,–
CC(C)(C(=O)c1cccnc1)c1cccnc1 [metyrapone],-VE,vNo-DILI-Concern,–,–
"CCCCCOc1ccc(-c2cc(-c3ccc(C(=O)N[C@H]4C[C@@H](O)[C@@H](O)NC(=O)[C@@H]5[C@@H](O)[C@@H](C)CN5C(=O)[C@H]([C@H](O)CC(N)=O)NC(=O)[C@H]([C@H](O)[C@@H](O)c5ccc(O)c(OS(=O)(=O)O)c5)NC(=O)[C@@H]5C[C@@H](O)CN5C(=O)[C@H]([C@@H](C)O)NC4=O)cc3)no2)cc1 [micafungin] (X1-[Orn(4R-OH,5R-OH)]T[Hyp][hTyr(3S-OH,4S-OH,3'-OSO3H)][Gln(3R-OH)][Pro(3S-OH,4S-Me)]; lactam 1-C)",+VE,vMost-DILI-Concern,–,–
OCCN1C[C@H](O)[C@@H](O)[C@H](O)[C@H]1CO [miglitol],-VE,vNo-DILI-Concern,–,–
CCCCN1C[C@H](O)[C@@H](O)[C@H](O)[C@H]1CO [miglustat],-VE,vNo-DILI-Concern,–,–
Clc1ccc(C(c2ccccc2Cl)C(Cl)Cl)cc1 (centres unmarked) [mitotane],-VE,vNo-DILI-Concern,–,–
COc1cc2c(cc1OC)[C@@H](Cc1cc(OC)c(OC)c(OC)c1)[N+](C)(CCCOC(=O)CC/C=C/CCC(=O)OCCC[N+]1(C)CCc3cc(OC)c(OC)cc3[C@H]1Cc1cc(OC)c(OC)c(OC)c1)CC2 (some centres unmarked) [mivacurium],-VE,vNo-DILI-Concern,–,–
CCOC(=O)[C@H](CCc1ccccc1)N[C@@H](C)C(=O)N1Cc2cc(OC)c(OC)cc2C[C@H]1C(=O)O [moexipril],-VE,Ambiguous DILI-concern,–,–
CC(C)(O)c1ccccc1CC[C@@H](SCC1(CC(=O)O)CC1)c1cccc(/C=C/c2ccc3ccc(Cl)cc3n2)c1 [montelukast],–,–,+VE,vLess-DILI-Concern
CCOC(=O)Nc1ccc2c(c1)N(C(=O)CCN1CCOCC1)c1ccccc1S2 [moricizine],-VE,Ambiguous DILI-concern,–,–
COc1c(N2C[C@@H]3CCCN[C@@H]3C2)c(F)cc2c(=O)c(C(=O)O)cn(C3CC3)c12 [moxifloxacin],–,–,+VE,vLess-DILI-Concern
COc1c(C)c2c(c(O)c1C/C=C(\C)CCC(=O)OCCN1CCOCC1)C(=O)OC2 [mycophenolate mofetil],+VE,vLess-DILI-Concern,–,–
COc1c(C)c2c(c(O)c1C/C=C(\C)CCC(=O)O)C(=O)OC2 [mycophenolic acid],-VE,Ambiguous DILI-concern,–,–
CCCCCCC(C)(C)c1cc(O)c2c(c1)OC(C)(C)C1CCC(=O)CC21 (centres unmarked) [nabilone],-VE,vNo-DILI-Concern,–,–
COc1ccc2cc(CCC(C)=O)ccc2c1 [nabumetone],-VE,Ambiguous DILI-concern,–,–
CCOc1ccc2ccccc2c1C(=O)N[C@@H]1C(=O)N2[C@@H]1SC(C)(C)[C@@H]2C(=O)O [nafcillin],+VE,vLess-DILI-Concern,–,–
C=C1CC[C@@]2(O)[C@H]3Cc4ccc(O)c5c4[C@@]2(CCN3CC2CC2)[C@H]1O5 [nalmefene hydrochloride],-VE,Ambiguous DILI-concern,–,–
CCCCCCCCCC(=O)O[C@H]1CC[C@H]2[C@@H]3CCC4=CC(=O)CC[C@@H]4[C@H]3CC[C@]12C [nandrolone decanoate],+VE,vMost-DILI-Concern,–,–
CNS(=O)(=O)CCc1ccc2[nH]cc(C3CCN(C)CC3)c2c1 [naratriptan],-VE,Ambiguous DILI-concern,–,–
COc1nc(N)nc2c1ncn2[C@@H]1O[C@H](CO)[C@@H](O)[C@@H]1O [nelarabine],+VE,vLess-DILI-Concern,–,–
NC[C@@H]1O[C@H](O[C@H]2[C@@H](O)[C@H](O[C@@H]3[C@@H](O)[C@H](N)C[C@H](N)[C@H]3O[C@H]3O[C@H](CN)[C@@H](O)[C@H](O)[C@H]3N)O[C@@H]2CO)[C@H](N)[C@@H](O)[C@@H]1O [neomycin],–,–,-VE,vNo-DILI-Concern
CN(C)Cc1ccc(CSCCN/C(=C\[N+](=O)[O-])NCc2ccc3c(c2)OCO3)o1 [niperotidine],+VE,vMost-DILI-Concern,–,–
CC(=O)Oc1ccccc1C(=O)Nc1ncc([N+](=O)[O-])s1 [nitazoxanide],-VE,vNo-DILI-Concern,–,–
O=C1CCCC(=O)C1C(=O)c1ccc(C(F)(F)F)cc1[N+](=O)[O-] [nitisinone],-VE,Ambiguous DILI-concern,–,–

SMILES,"DILI +VE (5-8), DILI -VE (-4) [1]",DILI severity category [2],"DILI +VE (5-8), DILI -VE (-4) (in vivo)",DILI severity category (in vivo)
Cc1nc([N+](=O)[O-])cn1-c1ccc([N+](=O)[O-])cc1 [nitrefazole],+VE,vMost-DILI-Concern,–,–
C#C[C@]1(OC(C)=O)CC[C@H]2[C@@H]3CCC4=CC(=O)CC[C@@H]4[C@H]3CC[C@@]21C [norethindrone acetate],-VE,vNo-DILI-Concern,–,–
C[C@@H]1[C@H](O)[C@@H](C)/C=C/C=C/CC/C=C/C=C/C=C/C=C/C(O[C@H]2O[C@H](C)[C@@H](O)[C@H](N)[C@@H]2O)CC2O[C@](O)(CC(O)C(O)CCC(O)CC(O)CC(O)CC(=O)O[C@H]1C)CC(O)C2C(=O)O (some centres unmarked) [nystatin],-VE,vNo-DILI-Concern,–,–
O=C(O)c1cc(/N=N/c2ccc(O)c(C(=O)O)c2)ccc1O [olsalazine],+VE,vLess-DILI-Concern,–,–
Cc1nccn1CC1CCc2c(c3ccccc3n2C)C1=O (centres unmarked) [ondansetron],+VE,vLess-DILI-Concern,–,–
Cc1onc(-c2ccccc2)c1C(=O)N[C@@H]1C(=O)N2[C@@H]1SC(C)(C)[C@@H]2C(=O)O [oxacillin],+VE,vLess-DILI-Concern,–,–
O=C(O)C(=O)O.[NH-][C@@H]1CCCC[C@H]1[NH-].[Pt+2] [oxaliplatin],+VE,vMost-DILI-Concern,–,–
O=C1Nc2ccc(Cl)cc2C(c2ccccc2)=NC1O (centres unmarked) [oxazepam],–,–,-VE,Ambiguous DILI-concern
COc1ccc2c3c1O[C@H]1C(=O)CC[C@@]4(O)[C@@H](C2)N(C)CC[C@]314 [oxycodone],–,–,-VE,vNo-DILI-Concern
O=C1Nc2ccccc2C1(c1ccc(O)cc1)c1ccc(O)cc1 [oxyphenisatin],–,–,+VE,vMost-DILI-Concern
CC[C@H](C)[C@@H]1NC(=O)[C@H](Cc2ccc(O)cc2)NC(=O)[C@@H](N)CSSC[C@@H](C(=O)N2CCC[C@H]2C(=O)N[C@@H](CC(C)C)C(=O)NCC(N)=O)NC(=O)[C@H](CC(N)=O)NC(=O)[C@H](CCC(N)=O)NC1=O [oxytocin],–,–,-VE,vNo-DILI-Concern
CONC(=N)c1ccc(-c2ccc(-c3ccc(C(=N)NOC)cc3)o2)cc1 [pafuramidine],+VE,vMost-DILI-Concern,–,–
O=C1c2cccc3c2[C@H](CCC3)CN1[C@@H]1CN2CCC1CC2 [palonosetron],-VE,Ambiguous DILI-concern,–,–
CC(=O)O[C@H]1C[C@@H]2CC[C@@H]3[C@H](CC[C@@]4(C)[C@H]3C[C@H]([N+]3(C)CCCCC3)[C@@H]4OC(C)=O)[C@@]2(C)C[C@@H]1[N+]1(C)CCCCC1 [pancuronium],–,–,-VE,vNo-DILI-Concern
COc1ccnc(C[S+]([O-])c2nc3ccc(OC(F)F)cc3[nH]2)c1OC (centres unmarked) [pantoprazole],+VE,vLess-DILI-Concern,–,–
COc1ccc(Cc2nccc3cc(OC)c(OC)cc23)cc1OC [papaverine],–,–,+VE,vMost-DILI-Concern
C[C@H](/C=C/[C@H](C)C(C)(C)O)[C@H]1CC[C@H]2/C(=C/C=C3C[C@@H](O)C[C@H](O)C3)CCC[C@]12C [paricalcitol],-VE,Ambiguous DILI-concern,–,–
Nc1nc2[nH]cc(CCc3ccc(C(=O)N[C@@H](CCC(=O)O)C(=O)O)cc3)c2c(=O)[nH]1 [pemetrexed],-VE,Ambiguous DILI-concern,–,–
CSCC[C@H](NC(=O)[C@H](Cc1c[nH]c2ccccc12)NC(=O)CCNC(=O)OC(C)(C)C)C(=O)N[C@@H](CC(=O)O)C(=O)N[C@@H](Cc1ccccc1)C(N)=O [pentagastrin],–,–,-VE,vNo-DILI-Concern
N=C(N)c1ccc(OCCCCCOc2ccc(C(=N)N)cc2)cc1 [pentamidine],+VE,vLess-DILI-Concern,–,–
CC(C)=CCN1CCC2(C)c3cc(O)ccc3CC1C2C (centres unmarked) [pentazocine],-VE,vNo-DILI-Concern,–,–
O=C(O)CN(CCN(CC(=O)O)CC(=O)O)CCN(CC(=O)O)CC(=O)O [pentetic acid],-VE,vNo-DILI-Concern,–,–
CCCC(C)C1(CC)C(=O)NC(=O)NC1=O (centres unmarked) [pentobarbital],-VE,Ambiguous DILI-concern,–,–
OC[C@H]1O[C@@H](n2cnc3c2NC=NC[C@H]3O)C[C@@H]1O [pentostatin],+VE,vMost-DILI-Concern,–,–
